The values that follow are results of earlier work, collected in patent US11603489B2, “Method for inhibiting water permeation in an extraction well of a hydrocarbon oil from an underground reservoir” (priority 2016, dated 2023).

For data set [1] the following is noted: temperature at which the initiator has a half-life of 10 hours.
Assay in data set [2]: not given
This is another data set of the same source.

Setting [3] is: distribution coefficient between water and 1-octanol.
The mark [4] stands for this setting: temperature at which the initiator has a half-life of 10 hours, in benzene.

Like-named read-outs stand apart in the source and are kept apart here.

With `CC(C)(N=NC(C)(C)C(=N)N)C(=N)N.Cl.Cl` [2,2′-Azobis(2-methylpropionamidine) dihydrochloride], in data set [1] (dihydrochloride), the “T1/2(10 h) in water” value is 55 °C.

With `CC(C#N)(CCC(=O)O)N=NC(C)(C#N)CCC(=O)O` (stereo not drawn) [4,4′-Azobis(4-cyanovaleric acid)], the “T1/2(10 h) in water” value in data set [1] was 50 °C.

Take `CC(C)(C#N)N=NC(N)=O` [Composition V-30, 1-[(1-cyano-1-methylethyl)azo]formamide]: the “Log P octanol/water” value under setting [3] is listed as above 0. For the same compound, the “T1/2(10 h) in benzene” value in data set [2] (setting [4]) was 104 °C.

`CCC(C)(C#N)N=NC(C)(C#N)CC` (stereo not drawn) [Composition V-59, 2,2′-azobis(2-methylbutyronitrile)]: the “Log P octanol/water” value under setting [3] is listed as above 0.

Regarding `CC(C)(N=NC(C)(C)C(=O)NC(CO)(CO)CO)C(=O)NC(CO)(CO)CO` [VA080, 2,2′-Azobis{2-methyl-N-[1,1-bis(hydroxymethyl)-2-hydroxyethyl]propionamide}], the “Log P octanol/water” value is below 0. The “T1/2(10 h) in water” value in data set [1] is 80 °C.

In the case of `CC(C)(N=NC(C)(C)C(=O)NCCO)C(=O)NCCO` [VA086, 2,2′-Azobis[2-methyl-N-(2-hydroxyethyl)propionamide]], the “T1/2(10 h) in water” value in data set [1] is 87 °C.

Consider `CC(C)(N=NC(C)(C)C1=NCCN1)C1=NCCN1.Cl.Cl` [VA-044, 2,2′-Azobis[2-(2-imidazolin-2-yl)propane]dihydrochloride], for which the “T1/2(10 h) in water” value in data set [1] was 44 °C.

For `CC(C)(N=NC(C)(C)C1=NCCN1)C1=NCCN1.O.O.O=S(=O)(O)O.O=S(=O)(O)O` [VA-046B, 2,2′-Azobis[2-(2-imidazolin-2-yl)propane]disulfate dihydrate], the “T1/2(10 h) in water” value in data set [1] was 47 °C.

On to `CC(C)(N=NC(C)(C)C(=N)NCCC(=O)O)C(=N)NCCC(=O)O.O.O.O.O` [VA-057, 2,2′-Azobis[N-(2-carboxyethyl)-2-methylpropionamidine]tetrahydrate], for which the “Log P octanol/water” value under setting [3] is reported as below 0. Moreover, the “T1/2(10 h) in water” value in data set [1] was 57 °C.

Take `CC(C)(N=NC(C)(C)C1=NCCN1CCO)C1=NCCN1CCO.Cl.Cl` [VA-060, 2,2′-Azobis{2-[1-(2-hydroxyethyl)-2-imidazolinyl]propane}-dihydrochloride]: the “Log P octanol/water” value under setting [3] is on record as below 0. In addition, in data set [1], the “T1/2(10 h) in water” value is 60 °C.

Regarding `CC(C)(N=NC(C)(C)C1=NCCN1)C1=NCCN1` [VA-061, 2,2′-Azobis[2-(2-imidazolin-2-yl)propane]], the “T1/2(10 h) in water” value in data set [1] was 61 °C.

Turning to `CCC(C)(N=NC(C)(CC)C(=N)N1CCCC1)C(=N)N1CCCC1.Cl.Cl` (stereo not drawn) [VA-067, 2,2′-Azobis(1-imino-1-pyrrolidine-2-ethylpropane)-dihydrochloride], the “T1/2(10 h) in water” value in data set [1] is 67 °C.

`CCCCNC(=O)C(C)(C)N=NC(C)(C)C(=O)NCCCC` [VAm-110, 2,2′-azobis(N-butyl-2-methylpropionamide)]: the “Log P octanol/water” value is recorded as above 0. Also, the “T1/2(10 h) in benzene” value in data set [2] is 110 °C.

In the case of `CC(C)(N=NC(C)(C)C(=O)NC1CCCCC1)C(=O)NC1CCCCC1` [VAm-111, 2,2′-azobis(N-cyclohexyl-2-methylpropionamide)], the “Log P octanol/water” value is above 0. Further, in data set [2], the “T1/2(10 h) in benzene” value was 111 °C.

`C=CCNC(=O)C(C)(C)N=NC(C)(C)C(=O)NCC=C` [VF-096, 2,2′-azobis[N-(2-propenyl)-2-methylpropionamide]]: the “Log P octanol/water” value was above 0. The “T1/2(10 h) in benzene” value in data set [2] is 96 °C.

For the compound `N.N.O=S(=O)(O)OOS(=O)(=O)O` [ammonium persulfate], the “T1/2(10 h) in water” value in data set [1] is 65 °C.

Take `O=C(OOC(=O)c1ccccc1)c1ccccc1` [benzoyl peroxide]: under setting [3], the “Log P octanol/water” value is given as above 0.

In the case of `CC(C)(OOC(C)(C)c1ccccc1)c1ccccc1` [dicumyl peroxide], under setting [3], the “Log P octanol/water” value is reported as above 0. Besides, in data set [2] (setting [4]), the “T1/2(10 h) in benzene” value was 75 °C.

With `O.O.O=S(=O)([O-])CO.[Na+]` [hydroxymethanesulfonic acid monosodium salt dihydrate], the “Log P octanol/water” value under setting [3] is given as below 0. Further, the “T1/2(10 h) in water” value in data set [1] was 60 °C.

For the compound `CCCCCCCCCCCC(=O)OOC(=O)CCCCCCCCCCC` [lauroyl peroxide], the “Log P octanol/water” value under setting [3] is listed as above 0. In addition, the “T1/2(10 h) in benzene” value in data set [2] (setting [4]) is 75 °C.

In the case of `O=S(=O)([O-])OOS(=O)(=O)[O-].[K+].[K+]` [potassium persulfate], the “T1/2(10 h) in water” value in data set [1] is 65 °C.

As for `O=S(=O)([O-])OOS(=O)(=O)[O-].[Na+].[Na+]` [sodium persulfate], the “T1/2(10 h) in water” value in data set [1] was 65 °C.

`CC(C)(C)OOC(C)(C)C` [tert-butyl peroxide]: the “Log P octanol/water” value under setting [3] is above 0. Further, in data set [2] (setting [4]), the “T1/2(10 h) in benzene” value is 70 °C.

For `CC(C)(C)OOC(=O)c1ccccc1` [tert-butyl peroxybenzoate], the “Log P octanol/water” value under setting [3] is listed as above 0. The “T1/2(10 h) in benzene” value in data set [2] (setting [4]) is 73 °C.
